{
  "source": "patent US12594267B2",
  "about": "“Capsid inhibitors for the treatment of HIV” (Gilead Sciences, Inc., priority 2018, dated 2026)",
  "key": {"HIV-1 clinical isolates": {"test_system": "HIV-1 clinical isolates", "assay": "Antiviral activity against HIV-1 clinical isolates in PHA-stimulated human PBMCs", "assay_type": "cell-based", "details": "Human immunodeficiency virus 1, PBMC", "procedure": "(§1) The antiretroviral activity of the compound of Formula (Ia) was tested against a panel of 22 HIV-1 clinical isolates of HIV-1 and two HIV-2 isolates in freshly isolated, PHA-stimulated human peripheral blood mononuclear cells (PBMCs). The HIV-1 isolates included representative strains from subtypes A, B, C, D, E, F, G, N, O, AE, and AG. Following a 7-day infection, virus production was determined by measuring reverse transcriptase activity in cell-free culture supernatants."}, "HIV-2 isolates": {"test_system": "HIV-2 isolates", "assay": "Antiviral activity against HIV-2 isolates in PHA-stimulated human PBMCs", "assay_type": "cell-based", "details": "Human immunodeficiency virus 2, PBMC, 168 h, 7-day infection, RT activity readout, mean of triplicate", "procedure": "as §1"}, "WT LAI": {"test_system": "WT LAI", "assay": "microbe, parasite or virus in culture", "assay_type": "cell-based, HIV-1", "details": "Human immunodeficiency virus 1, MT2, read-out: WT LAI EC50", "procedure": "(§2) The antiviral activity of the compound of Formula (a) was tested against a panel of known HIV-1 mutants resistant to HIV PIs (ATV and DRV), NRTIs (TFV and FTC), NNRTIs (RPV and EFV) or INSTIs (RAL, EVG and DTG) using a cytopathic antiviral assay in MT-2 cells."}, "PI-resistant viruses": {"test_system": "PI-resistant viruses", "assay": "Cytopathic antiviral assay in MT-2 cells, PI-resistant viruses", "assay_type": "cell-based, HIV-1", "details": "for EC50 Fold-Change: Mutant/WT (HXB2D) EC50 ratio, mean ± s.d. of three experiments", "procedure": "as §2, with “cells. The compound of Formula (Ia) was fully active against all tested mutants resistant to PIs (Table 11), NRTIs (Table 12), NNRTIs (Table 13) or INSTIs (Table 14).” for “cells.”"}, "NRTI-resistant viruses": {"test_system": "NRTI-resistant viruses", "assay_type": "cell-based, HIV-1", "details": "MT-2 cells; for EC50 Fold-Change: Mutant/WT (LAI) EC50 ratio, mean ± s.d. of three experiments", "procedure": "as §2"}},
  "note": "Read-outs that look alike come from different tables or passages of the source.",
  "data": [
    {"compound": "CC(C)(C#Cc1ccc(-c2ccc(Cl)c3c(NS(C)(=O)=O)nn(CC(F)(F)F)c23)c([C@H](Cc2cc(F)cc(F)c2)NC(=O)Cn2nc(C(F)(F)F)c3c2C(F)(F)[C@@H]2C[C@H]32)n1)S(C)(=O)=O", "note": "[Formula (Ia), N—((S)-1-(3-(4-chloro-3-(methylsulfonamido)-1-(2,2,2-trifluoroethyl)-1H-indazol-7-yl)-6-(3-methyl-3-(methylsulfonyl)but-1-yn-1-yl)pyridin-2-yl)-2-(3,5-difluorophenyl)ethyl)-2-((3bS,4aR)-5,5-difluoro-3-(trifluoromethyl)-3b,4,4a,5-tetrahydro-1H-cyclopropa[3,4]cyclopenta[1,2-c]pyrazol-1-yl)acetamide]", "values": [
      {"measurement": "EC50", "setting": "HIV-1 clinical isolates; 168 h, read-out: EC50 in human PBMCs, HIV-1 CRF02_AG isolate 01CM0008BBY, 7-day infection, RT activity readout, mean of triplicate", "result": 0.05, "unit": "nM"},
      {"measurement": "EC50", "setting": "HIV-1 clinical isolates; 168 h, read-out: EC50 in human PBMCs, HIV-1 CRF02_AG isolate 91DJ263, 7-day infection, RT activity readout, mean of triplicate", "result": 0.04, "unit": "nM"},
      {"measurement": "EC50", "setting": "HIV-1 clinical isolates; 168 h, read-out: EC50 in human PBMCs, HIV-1 Group N isolate YBF30, 7-day infection, RT activity readout, mean of triplicate", "result": 0.02, "unit": "nM"},
      {"measurement": "EC50", "setting": "HIV-1 clinical isolates; 168 h, read-out: EC50 in human PBMCs, HIV-1 Group O isolate BCF01, 7-day infection, RT activity readout, mean of triplicate", "result": 0.04, "unit": "nM"},
      {"measurement": "EC50", "setting": "HIV-1 clinical isolates; 168 h, read-out: EC50 in human PBMCs, HIV-1 subtype A isolate 92UG031, 7-day infection, RT activity readout, mean of triplicate", "result": 0.04, "unit": "nM"},
      {"measurement": "EC50", "setting": "HIV-1 clinical isolates; 168 h, read-out: EC50 in human PBMCs, HIV-1 subtype A isolate 92UG037, 7-day infection, RT activity readout, mean of triplicate", "result": 0.07, "unit": "nM"},
      {"measurement": "EC50", "setting": "HIV-1 clinical isolates; 168 h, read-out: EC50 in human PBMCs, HIV-1 subtype B isolate 89BZ_167, 7-day infection, RT activity readout, mean of triplicate", "result": 0.08, "unit": "nM"},
      {"measurement": "EC50", "setting": "HIV-1 clinical isolates; 168 h, read-out: EC50 in human PBMCs, HIV-1 subtype B isolate 90US_873, 7-day infection, RT activity readout, mean of triplicate", "result": 0.04, "unit": "nM"},
      {"measurement": "EC50", "setting": "HIV-1 clinical isolates; 168 h, read-out: EC50 in human PBMCs, HIV-1 subtype B isolate 91US001, 7-day infection, RT activity readout, mean of triplicate", "result": 0.03, "unit": "nM"},
      {"measurement": "EC50", "setting": "HIV-1 clinical isolates; 168 h, read-out: EC50 in human PBMCs, HIV-1 subtype B isolate 91US004, 7-day infection, RT activity readout, mean of triplicate", "result": 0.04, "unit": "nM"},
      {"measurement": "EC50", "setting": "HIV-1 clinical isolates; 168 h, read-out: EC50 in human PBMCs, HIV-1 subtype B isolate 96TH_NP1538, 7-day infection, RT activity readout, mean of triplicate", "result": 0.05, "unit": "nM"},
      {"measurement": "EC50", "setting": "HIV-1 clinical isolates; 168 h, read-out: EC50 in human PBMCs, HIV-1 subtype B isolate JR-CSF, 7-day infection, RT activity readout, mean of triplicate", "result": 0.04, "unit": "nM"},
      {"measurement": "EC50", "setting": "HIV-1 clinical isolates; 168 h, read-out: EC50 in human PBMCs, HIV-1 subtype C isolate 92BR025, 7-day infection, RT activity readout, mean of triplicate", "result": 0.05, "unit": "nM"},
      {"measurement": "EC50", "setting": "HIV-1 clinical isolates; 168 h, read-out: EC50 in human PBMCs, HIV-1 subtype C isolate 98US_MSC5016, 7-day infection, RT activity readout, mean of triplicate", "result": 0.1, "unit": "nM"},
      {"measurement": "EC50", "setting": "HIV-1 clinical isolates; 168 h, read-out: EC50 in human PBMCs, HIV-1 subtype D isolate 92UG001, 7-day infection, RT activity readout, mean of triplicate", "result": 0.02, "unit": "nM"},
      {"measurement": "EC50", "setting": "HIV-1 clinical isolates; 168 h, read-out: EC50 in human PBMCs, HIV-1 subtype D isolate 98UG_57128, 7-day infection, RT activity readout, mean of triplicate", "result": 0.03, "unit": "nM"},
      {"measurement": "EC50", "setting": "HIV-1 clinical isolates; 168 h, read-out: EC50 in human PBMCs, HIV-1 subtype E isolate CMU02, 7-day infection, RT activity readout, mean of triplicate", "result": 0.05, "unit": "nM"},
      {"measurement": "EC50", "setting": "HIV-1 clinical isolates; 168 h, read-out: EC50 in human PBMCs, HIV-1 subtype E isolate CMU08, 7-day infection, RT activity readout, mean of triplicate", "result": 0.05, "unit": "nM"},
      {"measurement": "EC50", "setting": "HIV-1 clinical isolates; 168 h, read-out: EC50 in human PBMCs, HIV-1 subtype F isolate 93BR020, 7-day infection, RT activity readout, mean of triplicate", "result": 0.05, "unit": "nM"},
      {"measurement": "EC50", "setting": "HIV-1 clinical isolates; 168 h, read-out: EC50 in human PBMCs, HIV-1 subtype G isolate JV1083, 7-day infection, RT activity readout, mean of triplicate", "result": 0.16, "unit": "nM"},
      {"measurement": "EC50", "setting": "HIV-1 clinical isolates; read-out: HIV-1 EC50 Mean ± s.d., mean over the 22 HIV-1 clinical isolates, human PBMCs", "result": "0.05 ± 0.03", "unit": "nM"},
      {"measurement": "EC50", "setting": "HIV-1 clinical isolates; read-out: HIV-1 EC50 Median, median over the 22 HIV-1 clinical isolates, human PBMCs", "result": 0.04, "unit": "nM"},
      {"measurement": "EC50", "setting": "HIV-1 clinical isolates; read-out: HIV-1 EC50 Range, range over the 22 HIV-1 clinical isolates, human PBMCs", "result": "0.02 to 0.16", "unit": "nM"},
      {"measurement": "EC50", "setting": "HIV-2 isolates; HIV-2 isolate CBL-20", "result": 0.57, "unit": "nM"},
      {"measurement": "EC50", "setting": "HIV-2 isolates; HIV-2 isolate CDC310319", "result": 1.02, "unit": "nM"},
      {"measurement": "EC50", "setting": "WT LAI", "result": "0.14 ± 0.03", "unit": "nM"},
      {"measurement": "EC50 Fold-Change", "setting": "PI-resistant viruses; G48V/V82A/L90M", "result": "0.4 ± 0.2"},
      {"measurement": "EC50 Fold-Change", "setting": "PI-resistant viruses; G48V/V82S", "result": "0.4 ± 0.1"},
      {"measurement": "EC50 Fold-Change", "setting": "PI-resistant viruses; I50V", "result": "0.6 ± 0.2"},
      {"measurement": "EC50 Fold-Change", "setting": "PI-resistant viruses; I84V/L90M", "result": "0.3 ± 0.1"},
      {"measurement": "activity against all tested mutants, in words", "setting": "PI-resistant viruses; mutants resistant to PIs", "result": "fully active"},
      {"measurement": "EC50 Fold-Change", "setting": "NRTI-resistant viruses; 6TAMs", "result": "0.4 ± 0.2"},
      {"measurement": "EC50 Fold-Change", "setting": "NRTI-resistant viruses; K65R", "result": "0.7 ± 0.2"},
      {"measurement": "EC50 Fold-Change", "setting": "NRTI-resistant viruses; M184V", "result": "0.5 ± 0.3"},
      {"measurement": "activity against all tested mutants, in words", "setting": "NRTI-resistant viruses; mutants resistant to NRTIs", "result": "fully active"}
    ]}
  ]
}
